Data reported in ChEMBL document CHEMBL1159151, “Synthesis and evaluation of cytotoxic activity of novel arylsulfonylimidazolidinones” (Bioorg Med Chem Lett, 1996).

Columns and labels:
A549 = assay: In vitro cytotoxic activity against human lung carcinoma A549 cell line; format: functional, cell-based
SK-MEL-2 = assay: In vitro cytotoxic activity against human melanoma SK-MEL-2 cell line; format: functional, cell-based

`O=C1NC(c2ccccc2)CN1S(=O)(=O)c1ccc2c(c1)CCC2` (stereo not given) was tested, and the IC50 (A549) was 0.91 µM.

`Cc1ccc(S(=O)(=O)N2C(=O)NCC2c2ccc(Br)cc2)cc1` (stereo not given) was tested, and the IC50 (SK-MEL-2) was 80 µM and the IC50 (A549) was 67 µM.

Work on `Cc1ccc(C2CNC(=O)N2S(=O)(=O)c2ccc3c(c2)CCC3)cc1` (stereo not given) yielded an IC50 (SK-MEL-2) of 88.6 µM and an IC50 (A549) of 90.3 µM.

`Cc1ccc(C2CN(S(=O)(=O)c3ccc(C)cc3)C(=O)N2)cc1` (stereo not given) showed an IC50 (SK-MEL-2) of over 303 µM and an IC50 (A549) of over 303 µM.

`Cc1ccc(C2CNC(=O)N2S(=O)(=O)c2ccccc2)cc1` (stereo not given) gave an IC50 (SK-MEL-2) of 144 µM and an IC50 (A549) of 157 µM.

`O=C1NC(c2ccc(Br)cc2)CN1S(=O)(=O)c1ccc(Cl)cc1` (stereo not given) showed an IC50 (SK-MEL-2) of 111 µM and an IC50 (A549) of 161 µM.

`O=C1NC(c2ccccc2)CN1S(=O)(=O)c1ccccc1` (stereo not given) was tested, and the IC50 (SK-MEL-2) was 116 µM and the IC50 (A549) was 145 µM.

Work on `O=C1NC(c2ccc(Cl)cc2)CN1S(=O)(=O)c1ccc2c(c1)CCC2` (stereo not given) yielded an IC50 (SK-MEL-2) of 64.3 µM and an IC50 (A549) of 86.3 µM.

With `Cc1ccc(C2CN(S(=O)(=O)c3ccc(Cl)cc3)C(=O)N2)cc1` (stereo not given) the IC50 (SK-MEL-2) was 123 µM and the IC50 (A549) was 158 µM.

Molecule `Cc1ccc(C2CNC(=O)N2S(=O)(=O)c2ccc(C)cc2)cc1` (stereo not given) has an IC50 (SK-MEL-2) of 234 µM and an IC50 (A549) of over 303 µM.

`O=C1NCC(c2ccc(Br)cc2)N1S(=O)(=O)c1ccc(Cl)cc1` (stereo not given) showed an IC50 (SK-MEL-2) of 106 µM and an IC50 (A549) of 84 µM.

`Cc1ccc(C2CN(S(=O)(=O)c3ccccc3)C(=O)N2)cc1` (stereo not given) showed an IC50 (SK-MEL-2) of over 316 µM and an IC50 (A549) of over 316 µM.

Molecule `O=C1NCC(c2ccc(Br)cc2)N1S(=O)(=O)c1ccc2c(c1)CCC2` (stereo not given) has an IC50 (SK-MEL-2) of 119 µM and an IC50 (A549) of over 237 µM.

With `Cc1ccc(S(=O)(=O)N2CC(c3ccccc3)NC2=O)cc1` (stereo not given) the IC50 (SK-MEL-2) was 2.53 µM and the IC50 (A549) was 12.5 µM.

Work on `Cc1ccc(C2CN(S(=O)(=O)c3ccc4c(c3)CCC4)C(=O)N2)cc1` (stereo not given) yielded an IC50 (SK-MEL-2) of 72.5 µM and an IC50 (A549) of 99.2 µM.

Molecule `O=C1NCC(c2ccc(Cl)cc2)N1S(=O)(=O)c1ccc2c(c1)CCC2` (stereo not given) has an IC50 (SK-MEL-2) of 161 µM and an IC50 (A549) of over 265 µM.

With `O=C1NC(c2ccc(Br)cc2)CN1S(=O)(=O)c1ccc2c(c1)CCC2` (stereo not given) the IC50 (SK-MEL-2) was 32.6 µM and the IC50 (A549) was 33.9 µM.

Molecule `Cc1ccc(S(=O)(=O)N2CC(c3ccc(Br)cc3)NC2=O)cc1` (stereo not given) has an IC50 (SK-MEL-2) of over 253 µM and an IC50 (A549) of over 253 µM.

`Cc1ccc(S(=O)(=O)N2C(=O)NCC2c2ccccc2)cc1` (stereo not given) was tested, and the IC50 (SK-MEL-2) was over 316 µM and the IC50 (A549) was over 316 µM.

With `O=C1NC(c2ccccc2)CN1S(=O)(=O)c1ccc(Cl)cc1` (stereo not given) the IC50 (SK-MEL-2) was 1.43 µM and the IC50 (A549) was 9.47 µM.

Work on `Cc1ccc(C2CNC(=O)N2S(=O)(=O)c2ccc(Cl)cc2)cc1` (stereo not given) yielded an IC50 (SK-MEL-2) of 255 µM and an IC50 (A549) of 266 µM.

Molecule `O=C1NCC(c2ccccc2)N1S(=O)(=O)c1ccc2c(c1)CCC2` (stereo not given) has an IC50 (SK-MEL-2) of 39 µM and an IC50 (A549) of 58.5 µM.

In the case of `O=C(Nc1ccc(Cl)cc1)NS(=O)(=O)c1ccc2c(c1)CCC2` [SULOFENUR], the IC50 (SK-MEL-2) is reported as 12.9 µM and the IC50 (A549) is reported as 11.3 µM.
